In US10308617B2, “Triazole benzamide derivatives and the compositions and methods of treatment regarding the same” (An2H Discovery Limited, priority 2016, dated 2019):

Legend:
Assay in all cases: Cancer Cell Proliferation Assay (acid phosphatase, 72 hrs)
Format in all cases: cell-based
[1] = system: SKOV3 (ovarian); details: Homo sapiens, SK-OV-3, read-out: IC50 on cancer cell line proliferation, SKOV3
Protocol: (§1) Measurement of the inhibitive effect of compounds on cancer cell proliferation was performed. Various cell lines were tested, including HCT-116 (colon); A549 (lung); TOV-21G (ovarian); Calu-6 (lung); H1703 (Lung); LS-174T (colon); and SKOV3 (ovarian). The assays were performed under the following conditions: Cells are harvested at a concentration of 4×10^4 cells/ml in media. Volumes of 100 μl/well of these cell suspensions were added to a 96 well plate using a multichannel pipette. Plates were gently agitated to ensure an even dispersion of cells over a given plate. Cells were then incubated at 37° C., 5% CO^2 overnight. Following this, 100 μl of compound at varying concentrations was added to wells in triplicate. Control wells are those with 100 μl media containing 0.33% DMSO added to cell suspension (this is the equivalent volume of DMSO found in the highest concentration of drug). Plates were then gently agitated, as above, and incubated at 37° C., 5% CO2 for 72 hrs (control wells have reached 80-90% confluency). Assessment of cell proliferation in the presence of the compound was determined by the acid phosphatase assay.
(§2) Following the incubation period of 72 hrs, media was removed from the plates. Each well on the plate was washed twice with 100 μl PBS. This was then removed and 100 μl of freshly prepared phosphatase substrate (10 mM p-nitrophenol phosphate in 0.1M sodium acetate, 0.1% triton X-100, pH 5.5) was added to each well. The plates were then incubated in the dark at 37° C. for 2 hours. Colour development was monitored during this time. The enzymatic reaction was stopped by the addition of 50 μl of 1N NaOH. The plate was read in a dual beam plate reader at 405 nm with a reference wavelength of 620 nm. The absorbance reading of the latter is subtracted from the former, and the effect of the drug on cell proliferation was then measured as a percentage against the control cells (DMSO), which is taken as 0% inhibition. […] FIG. 14 A-K also show the % inhibition curves of various compounds on these cancer cell lines with the 72 hrs proliferation assay.

[2] = system: H1703 (Lung); details: Homo sapiens, NCI-H1703, read-out: IC50 on cancer cell line proliferation, H1703
Protocol: as §1, §2

[3] = system: Calu-6 (lung); details: Homo sapiens, read-out: IC50 on cancer cell line proliferation, Calu6
Protocol: as §1, §2

[4] = system: TOV-21G (ovarian); details: Homo sapiens, TOV21G, read-out: IC50 on cancer cell line proliferation, TOV-21G
Protocol: as §1, §2

[5] = system: HCT-116 (colon); details: Homo sapiens, read-out: IC50 on cancer cell line proliferation, HCT-116
Protocol: as §1, §2

[6] = system: LS-174T (colon); details: Homo sapiens, LS174T, read-out: IC50 on cancer cell line proliferation, LS-174T
Protocol: as §1, §2

[7] = system: A549 (lung); details: Homo sapiens, read-out: IC50 on cancer cell line proliferation, A549
Protocol: as §1, §2

Row | IC50 [1] [µM] | IC50 [2] [µM] | IC50 [3] [µM] | IC50 [4] [µM] | IC50 [5] [µM] | IC50 [6] [µM] | IC50 [7] [µM] | Structure (SMILES)
1 | 2.06 | 1.54 | 0.194 | 0.688 | 0.294 | 1.73 | 0.613 | Cc1ccccc1C(=O)Nc1nc(NC(=O)c2ccccc2C)n(-c2ccc(Cl)cc2)n1 [Compound Q3]
2 | 2.71 | 2.62 | 3.37 | 1.19 | 1.3 | 1.69 | 1.98 | Cc1ccc(-c2nc(NC(=O)c3ccccc3C)n(-c3ccccc3)n2)nc1 [Compound R3, 2-methyl-N-(3-(5-methylpyridin-2-yl)-1-phenyl-1H-1,2,4-triazol-5-yl)benzamide]
3 | 0.65 | 2.71 | 2.36 | 0.566 | 0.482 | 0.522 | 0.878 | Cc1ccccc1C(=O)Nc1nc(-c2ncccc2C)nn1-c1ccccc1 [Compound S3, 2-methyl-N-(3-(3-methylpyridin-2-yl)-1-phenyl-1H-1,2,4-triazol-5-yl)benzamide]
4 | 1.18 | 4.7 | 3.34 | 0.495 | 0.351 | 0.938 | 0.893 | O=C(Nc1nc(-c2ccccn2)nn1-c1ccccc1)c1ccccc1 [Compound Y1, N-(1-phenyl-3-(pyridin-2-yl)-1H-1,2,4-triazol-5-yl)benzamide]
5 | 0.606 | 0.481 | 1.06 | 0.21 | 0.132 | 0.391 | 0.253 | O=C(Nc1nc(NC(=O)c2ccccc2)n(-c2ccc(OC(F)(F)F)cc2)n1)c1ccccc1 [Compound Z1]
